# Reference: paper PMC5737332
# What was measured:
# [1] = system: (CG)4 hairpin (DNA, hairpin) CGCGCGCGTTTTCGCGCGCG; test: SPR (Biacore X-100); details: Na+ 200 mM; 25 °C; one-site fit; running buffer for compound titration not explicitly stated
# [2] = system: AATT hairpin (DNA, hairpin) CGAATTCGTCTCCGAATTCG; test: SPR (Biacore X-100); details: Na+ 200 mM; 25 °C; site 1 of 2; running buffer for compound titration not explicitly stated
# [3] = system: AATAAT_ATTATT hairpin (DNA, hairpin) GGGGAATAATCGCGATTATTCCCCAATAATCGCGATTATT; test: SPR (Biacore X-100); details: Na+ 200 mM; 25 °C; site 1 of 2; running buffer for compound titration not explicitly stated
# [4] = system: (AT)4 hairpin (DNA, hairpin) CATATATATCCCCATATATATG; test: SPR (Biacore X-100); details: Na+ 200 mM; 25 °C; site 1 of 2; running buffer for compound titration not explicitly stated
# [5] = system: AATAAT_ATTATT hairpin (DNA, hairpin) GGGGAATAATCGCGATTATTCCCCAATAATCGCGATTATT; test: SPR competition; details: 200 mM NaCl, 3 mM EDTA, 10 mM HEPES pH 7.4, 0.05% P-20, 25 °C
# HMGB1 box A and box B = HMGB1 box A and box B (rat, UniProt P63159 8-165); test: SPR; K1, high-affinity site of two-site fit; SPR (Biacore X-100), HEPES 1 buffer: 10 mM HEPES, 3 mM EDTA, 200 mM NaCl, 0.05% P-20, pH 7.4, 25 C; details: protein: recombinant; tags: GST (GST-tagged construct in pGEX2T); label: 5'-biotin; hairpin as stated by the authors; loop underlining lost in text
# HMGB1 box A and box B, sequence (P63159 8-165): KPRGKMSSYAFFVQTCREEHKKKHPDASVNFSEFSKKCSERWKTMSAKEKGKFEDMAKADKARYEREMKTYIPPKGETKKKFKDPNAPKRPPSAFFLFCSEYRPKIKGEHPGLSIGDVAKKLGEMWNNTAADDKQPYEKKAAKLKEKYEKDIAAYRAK
K (KD) [1] [nM],K1 (KD) [2] [nM],K1 (KD) [3] [nM],K1 (KD) [4] [nM],IC50 ([5]; displaces 2 μM HMGA1a(Δ50-91) protein) [nM],IC50 ([5]; displaces 2 μM HMGB1 (box A+B) protein) [nM],Molecule,Kd (HMGB1 box A and box B) [nM]
6850,262,430,650,6000,3400,O=C(Nc1ccc(NC2=NCCN2)c(Cl)c1)c1ccc(NC2=NCCN2)cc1,
,,,,,,GGGGAATAATCGCGATTATTCCCCAATAATCGCGATTATT (structured_DNA) [AATAAT_ATTATT hairpin],330
